Measured values taken from EP0162545A2, “Enhanced bioconversion processes” (BETZ EUROPE, INC., priority 1984, dated 1985).

Key:
Klebsiella [1] = assay: CO2 evolution from 14C-D-glucose, second series; format: cell-based; design: Cumulative Growth Index Reading (CO2 Blowoff) 0 HR: scale not given here
Method: Experiments to look at the above conclusions in depth were performed. In these experiments, cultures of Klebsiella were challenged with various concentrations of BNS and the effects on C02 evolution from glucose, viability, TOC (Total Organic Carbon), TIC (Total Inorganic Carbon) production, removal, and DO (Dissolved Oxygen) removal were determined. Concentrations of BNS from 0.05 to 100 µg/mL were used. […] CO2 evolution decreased after 5 gg/mL. […] The viability dropped off after that with 99% inhibition at concentrations somewhere between 10 - 20 µg/mL. Organic carbon removal gave the most puzzling pattern. […] CO2 was produced, however, as reflected by the C02 blowoff experiments and the TIC data. The organic carbon being oxidized (removed) must have been cancelled out by an organic carbon addition caused by limited bacterial lysis. This phenomenon was investigated again. […] It appeared that 5 ppm BNS would be the maximum concentration that could be used for the desired effect, with the majority of favorable results occurring in the 0.05 - 2 ppm range.
The experiments coordinating the measurements of C02 evolution, TOC reduction, viable count, and dissolved oxygen (DO) reduction were performed as follows: C02 evolution by Klebsiella was measured as described previously using a narrowed set of BNS concentrations. At the same time, Klebsiella cells grown overnight in nutrient broth were standardized into an inoculum of 250 Klett units. These cells were used to inoculate 19 mL quantities of fresh nutrient broth (1 mL inoculum) in baffled shake flasks. These shake flasks were placed into water bath shakers at 37°C and allowed to shake for 5 hours. Concentrations of BNS equivalent to the C02 blowoff experiment were added to the flasks at the beginning of the experiment. Controls containing no BNS were included for comparisons. Total organic carbon measurements were taken after 5 hours incubation. Viable counts were done at 1 hour, 3 hours, and 5 hours. A parallel experiment was performed using the same setup except that after BNS additions, the flasks were shaken for 30 minutes and then held stationary. DO measurements were taken at 5 hours incubation with the use of a YSI Model 54A oxygen meter.

Klebsiella [2] = assay: microbe, parasite or virus in culture; format: cell-based
Method: These patterns were the results of Klebsiella cultures having been grown on glucose (^14C-label). In nature, and in waste treatment facilities, many organic carbon compounds, both simple and complex, would be available for degradation. The known uncouplers and BNS were tested for their ability to increase C02 evolution from cultures exposed to the common substrates lactate, glycine, glycerol, and a denatured protein mixture. […] This was expected in the case of glycine but it was thought that a more complex protein might be degraded and portions used for some energyproduction. It was hoped that these compounds might be a more representative group (more abundant in waste treatment) than simple sugars for determining the extent of activity of BNS. […] Lactate, a common intermediate in microbial metabolism, and a compound which would normally be used as an oxidizable substrate for running the cytochrome chain, gave a more representative response. BNS treated cultures gave increased C02 blowoff (an increase as high as 130% at 5 µg/mL) as did both known uncouplers. […] When glycerol was used as the labeled substrate, BNS treated cultures gave increased C02 at concentrations up to 5 µg/mL.
The procedure used for determining the CO2 evolution was similar to the procedure described previously. Cells having been grown overnight in MSM and glucose were centrifuged and resuspended in MSM + glucose (cold) and used as inoculum. No other cold carbon source (unlabeled) was added. ^14C-labeled substrates (lactate, glycerol, etc.) obtained from New England Nuclear were used and supplied the radiolabeled carbon for the detection of ^14CO2. BNS was utilized in concentrations of 0.5 - 10 µg/mL. Fixed concentrations of 5 µg/mL CCCP and DNP were included for comparative purposes. The following data were obtained in these experiments.

Compound: O=[N+]([O-])C(Br)=Cc1ccccc1 [BNS, beta-bromo-beta-nitrostyrene]
- Cumulative Growth Index Reading (CO2 Blowoff) 0 HR (Klebsiella [1]; BNS 0.05 μg/mL): 2
- Cumulative Growth Index Reading (CO2 Blowoff) 0.5 HR (Klebsiella [1]; BNS 0.05 μg/mL): 762
- Cumulative Growth Index Reading (CO2 Blowoff) 1 HR (Klebsiella [1]; BNS 0.05 μg/mL): 1,082
- Cumulative Growth Index Reading (CO2 Blowoff) 3 HR (Klebsiella [1]; BNS 0.05 μg/mL): 1,642
- Cumulative Growth Index Reading (CO2 Blowoff) 5 HR (Klebsiella [1]; BNS 0.05 μg/mL): 2,012
- Cumulative Growth Index Reading (CO2 Blowoff) 0 HR (Klebsiella [1]; BNS 0.1 μg/mL): 2
- Cumulative Growth Index Reading (CO2 Blowoff) 0.5 HR (Klebsiella [1]; BNS 0.1 μg/mL): 877
- Cumulative Growth Index Reading (CO2 Blowoff) 1 HR (Klebsiella [1]; BNS 0.1 μg/mL): 1,197
- Cumulative Growth Index Reading (CO2 Blowoff) 3 HR (Klebsiella [1]; BNS 0.1 μg/mL): 1,797
- Cumulative Growth Index Reading (CO2 Blowoff) 5 HR (Klebsiella [1]; BNS 0.1 μg/mL): 2,197
- Cumulative Growth Index Reading (CO2 Blowoff) 0 HR (Klebsiella [1]; BNS 0.5 μg/mL): 1
- Cumulative Growth Index Reading (CO2 Blowoff) 0.5 HR (Klebsiella [1]; BNS 0.5 μg/mL): 801
- Cumulative Growth Index Reading (CO2 Blowoff) 1 HR (Klebsiella [1]; BNS 0.5 μg/mL): 1,121
- Cumulative Growth Index Reading (CO2 Blowoff) 3 HR (Klebsiella [1]; BNS 0.5 μg/mL): 1,761
- Cumulative Growth Index Reading (CO2 Blowoff) 5 HR (Klebsiella [1]; BNS 0.5 μg/mL): 2,201
- Cumulative Growth Index Reading (CO2 Blowoff) 0 HR (Klebsiella [1]; BNS 1.0 μg/mL): 1
- Cumulative Growth Index Reading (CO2 Blowoff) 0.5 HR (Klebsiella [1]; BNS 1.0 μg/mL): 761
- Cumulative Growth Index Reading (CO2 Blowoff) 1 HR (Klebsiella [1]; BNS 1.0 μg/mL): 1,091
- Cumulative Growth Index Reading (CO2 Blowoff) 3 HR (Klebsiella [1]; BNS 1.0 μg/mL): 1,741
- Cumulative Growth Index Reading (CO2 Blowoff) 5 HR (Klebsiella [1]; BNS 1.0 μg/mL): 2,201
- Cumulative Growth Index Reading (CO2 Blowoff) 0 HR (Klebsiella [1]; BNS 2 μg/mL): 2
- Cumulative Growth Index Reading (CO2 Blowoff) 0.5 HR (Klebsiella [1]; BNS 2 μg/mL): 752
- Cumulative Growth Index Reading (CO2 Blowoff) 1 HR (Klebsiella [1]; BNS 2 μg/mL): 1,072
- Cumulative Growth Index Reading (CO2 Blowoff) 3 HR (Klebsiella [1]; BNS 2 μg/mL): 1,732
- Cumulative Growth Index Reading (CO2 Blowoff) 5 HR (Klebsiella [1]; BNS 2 μg/mL): 2,212
- Cumulative Growth Index Reading (CO2 Blowoff) 0 HR (Klebsiella [1]; BNS 5 μg/mL): 0
- Cumulative Growth Index Reading (CO2 Blowoff) 0.5 HR (Klebsiella [1]; BNS 5 μg/mL): 750
- Cumulative Growth Index Reading (CO2 Blowoff) 1 HR (Klebsiella [1]; BNS 5 μg/mL): 1,032
- Cumulative Growth Index Reading (CO2 Blowoff) 3 HR (Klebsiella [1]; BNS 5 μg/mL): 1,570
- Cumulative Growth Index Reading (CO2 Blowoff) 5 HR (Klebsiella [1]; BNS 5 μg/mL): 1,980
- Cumulative Growth Index Reading (CO2 Blowoff) 0 HR (Klebsiella [1]; BNS 10 μg/mL): 2
- Cumulative Growth Index Reading (CO2 Blowoff) 0.5 HR (Klebsiella [1]; BNS 10 μg/mL): 682
- Cumulative Growth Index Reading (CO2 Blowoff) 1 HR (Klebsiella [1]; BNS 10 μg/mL): 952
- Cumulative Growth Index Reading (CO2 Blowoff) 3 HR (Klebsiella [1]; BNS 10 μg/mL): 1,392
- Cumulative Growth Index Reading (CO2 Blowoff) 5 HR (Klebsiella [1]; BNS 10 μg/mL): 1,662
- Cumulative Growth Index Reading (CO2 Blowoff) 0 HR (Klebsiella [1]; BNS 20 μg/mL): 1
- Cumulative Growth Index Reading (CO2 Blowoff) 0.5 HR (Klebsiella [1]; BNS 20 μg/mL): 451
- Cumulative Growth Index Reading (CO2 Blowoff) 1 HR (Klebsiella [1]; BNS 20 μg/mL): 616
- Cumulative Growth Index Reading (CO2 Blowoff) 3 HR (Klebsiella [1]; BNS 20 μg/mL): 916
- Cumulative Growth Index Reading (CO2 Blowoff) 5 HR (Klebsiella [1]; BNS 20 μg/mL): 1,101
- Cumulative Growth Index Reading (CO2 Blowoff) 0 HR (Klebsiella [1]; BNS 50 μg/mL): 1
- Cumulative Growth Index Reading (CO2 Blowoff) 0.5 HR (Klebsiella [1]; BNS 50 μg/mL): 271
- Cumulative Growth Index Reading (CO2 Blowoff) 1 HR (Klebsiella [1]; BNS 50 μg/mL): 381
- Cumulative Growth Index Reading (CO2 Blowoff) 3 HR (Klebsiella [1]; BNS 50 μg/mL): 651
- Cumulative Growth Index Reading (CO2 Blowoff) 5 HR (Klebsiella [1]; BNS 50 μg/mL): 876
- Cumulative Growth Index Reading (CO2 Blowoff) 0 HR (Klebsiella [1]; BNS 100 μg/mL): 2
- Cumulative Growth Index Reading (CO2 Blowoff) 0.5 HR (Klebsiella [1]; BNS 100 μg/mL): 97
- Cumulative Growth Index Reading (CO2 Blowoff) 1 HR (Klebsiella [1]; BNS 100 μg/mL): 202
- Cumulative Growth Index Reading (CO2 Blowoff) 3 HR (Klebsiella [1]; BNS 100 μg/mL): 287
- Cumulative Growth Index Reading (CO2 Blowoff) 5 HR (Klebsiella [1]; BNS 100 μg/mL): 365
- activation at 5 µg/mL (Klebsiella [2]; Klebsiella, 14C-lactate as labeled substrate, 5 µg/mL, read-out: increase in C02 blowoff): 130%
- concentrations giving increased C02 (Klebsiella [2]; glycerol as the labeled substrate): up to 5 µg/mL
- effect on CO2 evolution (Klebsiella [2]; glycine as the labeled substrate): either no effect or a toxic effect
